Legend:
[1] = system: high-activity behaviors in rats induced by Amphetamine; assay: Effect on high-activity behaviors in rats induced by Amphetamine; format: in vivo, Wistar rats; settings: for inhibition of high-activity behaviors in rats induced by Amphetamine: Co. 1 5, 10 and 30 mg/kg i.p., Olanzepine 10 mg/kg i.p., Amphetamine 1.0 mg/kg s.c., P<0.01 vs Amphetamine group
Procedure: (§1) Animals used for experiments were adult male Wistar rats weighing 180˜250 g, housed in group of 6/cages, regulated with a 12/12 hour light/dark cycle, maintained at a constant temperature of 23±1° C. and a humidity of 50˜60% and allowed ad libitum access to rodent chow and water. After animals were purchased from the Experimental Animal Center, an adaptive housing was performed for a week, all the animals were randomly divided into three groups:
(§2) Group one: negative control group, intraperitoneally injected with 1% DMSO in physiological saline (10.0 ml/kg, i.p.);
Group two: experimental drug group, the rats were intraperitoneally injected respectively with different amounts of test compound Co. 1: 5, 10 and 30 mg/kg, i.p., the drug was formulated in 1% DMSO in physiological saline.
Group three: positive drug control group, the rats were intraperitoneally injected with Olanzepine (10 mg/kg, i.p., the drug was formulated in 1% DMSO in physiological saline)
The experiment employed Shanghai Jiliang animal behavior video analysis system, wherein the experimental environment was kept absolutely silent, when grabbing animals and administrating, movements were gentle to minimize adverse reactions of mental condition and emotion brought by external stimulus. The rats were moved from the animal room to a quiet lab and adapted for at least two hours. Subcutaneous injection of Amphetamine (1.0 mg/kg, s.c.), or 1% DMSO in physiological saline as control, was administrated. 30 minutes later, the animals were orally administrated of the compound, or physiological saline as control. The rats were placed in a spontaneous activity box, which was placed in an absolutely silent environment. The spontaneous activity box was connected to a recording apparatus and the activity conditions of rats were recorded for 30-60 minutes. The effect of drug or control on spontaneous activity in rats was determined.

[2] = system: high-activity behaviors in rats induced by PCP; assay: Effect on high-activity behaviors in rats induced by PCP; format: in vivo, Wistar rats; settings: for inhibition of high-activity behaviors in rats induced by PCP: Co. 1 5, 10 and 30 mg/kg i.p., Olanzepine 10 mg/kg i.p., PCP 5.0 mg/kg s.c., P<0.01 vs PCP group
Procedure: as §1
Group 1: negative control group, intraperitoneally injected with 1% DMSO in physiological saline (10.0 ml/kg, i.p.);
Group 2: experimental drug group, the rats were intraperitoneally injected respectively with different doses of test compound Co. 1: 5.0, 10 and 30 mg/kg, i.p., the drug was formulated in 1% DMSO in physiological saline.
Group 3: positive drug control group, the rats were intraperitoneally injected with Olanzepine (10 mg/kg, i.p., the drug was formulated in 1% DMSO in physiological saline)
The experiment employed Shanghai Jiliang animal behavior video analysis system, wherein the experimental environment was kept absolutely silent, when grabbing animals and administrating, movements were gentle to minimize adverse reactions of mental condition and emotion brought by external stimulus. The rats were moved from the animal room to a quiet lab and adapted for at least two hours. Subcutaneous injection of PCP (5.0 mg/kg, s.c.), or 1% DMSO in physiological saline as control, was administrated. 30 minutes later, the animals were intraperitoneally injected with the test compound, or 1% DMSO in physiological saline as control. The rats were placed in a spontaneous activity box, which was placed in an absolutely silent environment. The spontaneous activity box was connected to a recording apparatus and the activity conditions of rats were recorded for 30-60 minutes. The effect of drug or control on spontaneous activity in […] was determined.

[3] = system: spontaneous activity in rats; assay: Effect of test compound on spontaneous activity in rats (LMA); format: in vivo, Wistar rats; settings: 5.0, 10 and 30 mg/kg i.p.; 60 minutes after administration; recorded 30-60 minutes; P>0.05, Dunnett's test
Procedure: Animals used for experiments were adult male Wistar rats weighing 180˜250 g, housed in groups of 6/cages, regulated with a 12/12 hour light/dark cycle, maintained at a constant temperature of 23±1° C. and a humidity of 50˜60% and allowed ad libitum access to rodent chow and water. After animals were purchased from the Experimental Animal Center, an adaptive housing was performed for a week, all the animals were randomly divided into two groups:
as §2
Group two: experimental drug group, the rats were intraperitoneally injected respectively with different doses of test compound Co. 1: 5.0, 10 and 30 mg/kg, i.p., the drug was formulated in 1% DMSO in physiological saline.
The experiment employed Shanghai Jiliang animal behavior video analysis system, wherein the experimental environment was kept absolutely silent, when grabbing animals and administrating, movements were gentle to minimize adverse reactions of mental condition and emotion brought by external stimulus. […] The spontaneous activity box was connected to a recording apparatus and the activity conditions of rats were recorded for 30-60 minutes. The effect of drug or control on spontaneous activity in rats was determined.

hERG = hERG (Homo sapiens, UniProt Q12809); assay: hERG (pKi); format: binding
hERG, sequence (Q12809 whole entry): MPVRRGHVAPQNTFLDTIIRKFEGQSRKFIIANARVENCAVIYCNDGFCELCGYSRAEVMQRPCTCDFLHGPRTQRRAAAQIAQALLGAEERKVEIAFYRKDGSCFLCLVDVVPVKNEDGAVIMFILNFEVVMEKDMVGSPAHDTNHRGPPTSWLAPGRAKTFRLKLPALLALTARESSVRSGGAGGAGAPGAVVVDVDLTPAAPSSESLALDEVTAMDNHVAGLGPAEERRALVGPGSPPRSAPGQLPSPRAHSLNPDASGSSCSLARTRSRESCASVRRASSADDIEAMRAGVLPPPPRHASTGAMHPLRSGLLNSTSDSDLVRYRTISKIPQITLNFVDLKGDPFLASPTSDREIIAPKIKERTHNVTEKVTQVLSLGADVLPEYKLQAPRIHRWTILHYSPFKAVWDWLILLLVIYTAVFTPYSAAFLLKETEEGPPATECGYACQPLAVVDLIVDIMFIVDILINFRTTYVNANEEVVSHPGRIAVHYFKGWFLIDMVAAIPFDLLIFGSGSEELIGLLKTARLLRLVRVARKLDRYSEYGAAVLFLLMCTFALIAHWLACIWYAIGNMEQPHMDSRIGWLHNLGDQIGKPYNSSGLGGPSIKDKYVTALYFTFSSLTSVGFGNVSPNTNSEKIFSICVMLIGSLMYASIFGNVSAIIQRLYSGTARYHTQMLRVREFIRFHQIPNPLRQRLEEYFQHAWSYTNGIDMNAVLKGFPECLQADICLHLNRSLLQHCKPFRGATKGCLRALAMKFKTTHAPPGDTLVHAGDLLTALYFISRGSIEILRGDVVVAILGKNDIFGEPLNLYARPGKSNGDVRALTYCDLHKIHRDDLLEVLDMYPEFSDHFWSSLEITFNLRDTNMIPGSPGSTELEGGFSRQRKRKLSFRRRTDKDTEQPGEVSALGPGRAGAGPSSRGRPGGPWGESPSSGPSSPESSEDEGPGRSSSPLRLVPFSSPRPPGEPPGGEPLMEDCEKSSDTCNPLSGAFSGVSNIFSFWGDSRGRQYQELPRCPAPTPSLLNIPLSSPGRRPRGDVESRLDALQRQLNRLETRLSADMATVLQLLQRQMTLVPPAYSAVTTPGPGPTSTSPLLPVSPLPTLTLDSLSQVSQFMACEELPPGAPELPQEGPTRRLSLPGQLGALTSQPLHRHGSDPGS

G1yT2 = target: T1, G1yT2 (Homo sapiens, UniProt Q9Y345); assay: Selectivity vs GlyT2; format: cell-based; settings: listed as head criterion >10 × vs G1yT2
T1 sequence (Q9Y345 1-797): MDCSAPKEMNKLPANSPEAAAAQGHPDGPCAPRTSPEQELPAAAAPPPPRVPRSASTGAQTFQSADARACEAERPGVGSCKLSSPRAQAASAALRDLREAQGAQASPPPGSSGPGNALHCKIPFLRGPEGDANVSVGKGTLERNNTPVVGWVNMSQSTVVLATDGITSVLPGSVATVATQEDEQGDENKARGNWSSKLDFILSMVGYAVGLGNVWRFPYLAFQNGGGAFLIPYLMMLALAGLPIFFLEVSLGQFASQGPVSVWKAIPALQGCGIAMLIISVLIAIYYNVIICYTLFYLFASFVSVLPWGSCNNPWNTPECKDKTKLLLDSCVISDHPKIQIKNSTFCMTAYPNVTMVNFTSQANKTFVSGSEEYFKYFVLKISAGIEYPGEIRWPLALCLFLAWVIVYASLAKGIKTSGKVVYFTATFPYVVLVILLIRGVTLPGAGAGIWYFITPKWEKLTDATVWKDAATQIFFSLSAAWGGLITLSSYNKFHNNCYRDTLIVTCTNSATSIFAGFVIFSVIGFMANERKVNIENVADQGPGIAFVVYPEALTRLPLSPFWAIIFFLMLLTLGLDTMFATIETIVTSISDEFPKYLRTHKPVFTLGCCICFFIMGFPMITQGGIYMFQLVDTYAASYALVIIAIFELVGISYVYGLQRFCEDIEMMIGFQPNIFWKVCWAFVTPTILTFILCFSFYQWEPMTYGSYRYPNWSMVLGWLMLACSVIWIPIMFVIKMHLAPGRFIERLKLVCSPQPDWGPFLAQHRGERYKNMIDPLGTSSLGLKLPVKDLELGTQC
Source text: (§3) methods commonly used in the art were employed to determine the anti-glycine reuptake activity of the compound of the present invention. The experiment was repeated for three times and the mean value was taken.

Cmax in rat CSF = format: in vivo; settings: sc, 10 mg/kg s.c.
in vitro = in vitro ADME; settings: microsomes
Source text: as §3

[4] = Measured Clint, R-heps (hepatocytes); format: in vitro ADME, rat
Rat PK = format: in vivo
NET = NET (Homo sapiens, UniProt P23975); assay: Selectivity, NET; format: cell-based; settings: read-out: Selectivity NET pEC50 (converted)
NET, sequence (P23975 whole entry): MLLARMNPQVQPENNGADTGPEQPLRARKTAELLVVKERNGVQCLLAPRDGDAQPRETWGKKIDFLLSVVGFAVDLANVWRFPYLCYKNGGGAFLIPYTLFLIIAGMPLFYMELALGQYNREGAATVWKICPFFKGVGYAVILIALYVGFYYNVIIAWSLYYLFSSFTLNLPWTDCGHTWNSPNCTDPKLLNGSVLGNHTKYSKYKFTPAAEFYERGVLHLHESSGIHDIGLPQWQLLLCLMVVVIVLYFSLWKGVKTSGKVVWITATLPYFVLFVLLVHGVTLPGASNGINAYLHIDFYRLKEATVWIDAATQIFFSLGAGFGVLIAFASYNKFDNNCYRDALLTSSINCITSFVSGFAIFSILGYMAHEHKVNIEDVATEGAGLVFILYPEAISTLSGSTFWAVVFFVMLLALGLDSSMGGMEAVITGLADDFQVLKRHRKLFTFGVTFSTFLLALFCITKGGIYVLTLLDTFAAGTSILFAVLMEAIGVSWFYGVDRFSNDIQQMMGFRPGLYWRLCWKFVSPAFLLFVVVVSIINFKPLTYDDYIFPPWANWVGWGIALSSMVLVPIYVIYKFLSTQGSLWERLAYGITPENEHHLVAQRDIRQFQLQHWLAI

GlyT1 = target: T2, GlyT1 (Homo sapiens, UniProt P48067); assay: Anti-glycine reuptake activity, GlyT1; format: cell-based; settings: listed as head criterion > 6; mean of three experiments; read-out: GlyT1 pEC50 (converted)
T2 sequence (P48067 1-706): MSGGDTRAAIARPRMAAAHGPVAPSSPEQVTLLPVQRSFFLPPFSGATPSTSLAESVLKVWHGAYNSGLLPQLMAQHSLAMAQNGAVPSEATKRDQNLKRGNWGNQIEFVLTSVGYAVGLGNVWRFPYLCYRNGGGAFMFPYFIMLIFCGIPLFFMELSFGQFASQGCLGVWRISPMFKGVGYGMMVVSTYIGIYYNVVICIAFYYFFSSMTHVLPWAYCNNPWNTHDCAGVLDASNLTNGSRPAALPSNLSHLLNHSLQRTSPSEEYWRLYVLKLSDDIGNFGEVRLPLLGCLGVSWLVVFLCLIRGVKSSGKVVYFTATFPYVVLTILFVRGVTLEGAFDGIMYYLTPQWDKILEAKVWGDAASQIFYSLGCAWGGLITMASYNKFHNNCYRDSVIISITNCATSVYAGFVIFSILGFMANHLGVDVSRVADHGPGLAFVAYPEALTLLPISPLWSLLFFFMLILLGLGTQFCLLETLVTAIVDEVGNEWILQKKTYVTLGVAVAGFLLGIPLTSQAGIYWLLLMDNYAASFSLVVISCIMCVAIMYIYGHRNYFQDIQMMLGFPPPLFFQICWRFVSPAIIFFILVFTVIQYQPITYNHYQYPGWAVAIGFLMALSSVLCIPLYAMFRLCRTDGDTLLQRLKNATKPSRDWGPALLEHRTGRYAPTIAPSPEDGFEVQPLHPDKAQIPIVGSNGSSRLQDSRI
Source text: as §3

| SMILES | inhibition of high-activity behaviors in rats induced by Amphetamine [1] | inhibitory effect on Amphetamine-induced high-activity behaviors compared with the positive drug Olanzepine ([1]; P<0.05, Dunnett's test, compared with the Olanzepine/Amphetamine group) | inhibition of high-activity behaviors in rats induced by PCP [2] | inhibitory effect on PCP-induced high-activity behaviors compared with the positive drug Olanzepine ([2]; P<0.05, Dunnett's test, compared with the Olanzepine/PCP group) | effect on spontaneous activity in rats [3] | Ki (hERG) [nM] | G1yT2 effect at 10-5 M (G1yT2) [% @ 10-5 M] | Cmax (Cmax in rat CSF) [nM] | microsomal CLint (in vitro; human) [µL/min/mg] | microsomal CLint (in vitro; rat) [µL/min/mg] | Measured Clint R-heps [4] | Rat PK C1 (Rat PK) [mL/min/kg] | Rat PK P (Rat PK) [%] | EC50 (NET) [nM] | EC50 (GlyT1) [nM] |
| --- | --- | --- | --- | --- | --- | --- | --- | --- | --- | --- | --- | --- | --- | --- | --- |
| Cc1cc(C(=O)N[C@@H](CN2CCCCC2)C(C)C)cc(-c2ccccc2C(F)(F)F)n1 [Co. 1] | significantly inhibited | stronger | significantly inhibited | stronger | no significant effect |  |  |  |  |  |  |  |  |  |  |
| CCC(C)[C@@H](CN1CCCCC1)NC(=O)c1cc(C)nc(-c2cc(C)ccc2C(F)(F)F)c1 (some centres unmarked) [Co. 2] |  |  |  |  |  | 12600 | 14 | 60 | 135 | 81 | R-heps 15 ul/ml/106 cells | 52 | < 1 | 316 | 63.1 |
| Cc1cc2c(s1)Nc1ccccc1N=C2N1CCN(C)CC1 [Olanzepine, reference compound] | significantly inhibited |  | significantly inhibited |  |  |  |  |  |  |  |  |  |  |  |  |

Reference: patent publication US20150133497A1, “GLYCINE REUPTAKE INHIBITOR AND USE THEREOF” (Beijing Medisan Technology Co., Ltd., priority 2011, published 2015)
